Consider 22 molecules from BindingDB's records for doi:10.1021/jm000271k (Parke-Davis Pharmaceutical Research, 2000).

One experiment deals with Cyclin-dependent kinase 4/G1/S-specific cyclin-D1 [L188C] (Homo sapiens, UniProt P11802). Briefly: CDKs Assay.
Details: not given
On the procedure:
The enzyme was assayed with substrate GST- retinoblastoma in the presence of 25 uM ATP/[gamma-32P] ATP. IC50 is the inhibitor concentration, which inhibits 50% of enzyme activity that catalyzes the transfer of the terminal phosphate from [gamma-32P] labeled ATP to GST- retinoblastoma. Use of 32P-labeled ATP allows this transfer to be monitored by scintillation counting.
`O=c1ccc2cnc(Nc3ccccc3)nc2n1C1CCCC1` [8-cyclopentyl-2-(phenylamino)-7H,8H-pyrido[2,3-d]pyrimidin-7-one] showed an IC50 of 210 nM. Consider `Cn1c(=O)ccc2cnc(Nc3ccccc3)nc21` [8-Methyl-2-phenylamino-8H-pyrido[2,3-d]pyrimidin-7-one], for which the midpoint of inhibition, the IC50, lay at 5480 nM. `CCn1c(=O)ccc2cnc(Nc3ccc(N4CCN(C)CC4)cc3)nc21` [8-Ethyl-2-[4-(4-methylpiperazin-1-yl)phenylamino]-8H-pyrido[2,3-d]pyrimidin-7-one] showed an IC50 of 85 nM. Consider `O=c1ccc2cnc(Nc3ccccc3)nc2n1C1CCCCCC1` [8-cycloheptyl-2-(phenylamino)-7H,8H-pyrido[2,3-d]pyrimidin-7-one], for which half-maximal inhibition (IC50) was put at 182 nM. Still for that read-out and setting: under `O=c1ccc2cnc(Nc3ccccc3)nc2n1C1CC2CCC1C2` (configuration not stated) [8-Bicyclo[2.2.1]hept-2-yl-2-phenylamino-8H-pyrido[2,3-d]pyrimidin-7-one] stands 38 nM. `CCCCn1c(=O)ccc2cnc(Nc3ccccc3)nc21` [8-Butyl-2-phenylamino-8H-pyrido[2,3-d]pyrimidin-7-one] showed a 50% inhibitory concentration (IC50) of 1490 nM. `CCn1c(=O)ccc2cnc(Nc3ccc(N4CCOCC4)cc3)nc21` [8-Ethyl-2-(4-(morpholin-4-yl)phenylamino)-8H-pyrido[2,3-d]pyrimidin-7-one] registered an IC50 of 300 nM. Against the preceding molecule, the IC50 is about 5-fold lower. On the same count and under the same terms, under `CCN(CC)CCOc1ccc(Nc2ncc3ccc(=O)n(C(C)C)c3n2)cc1` [2-({4-[2-(diethylamino)ethoxy]phenyl}amino)-8-(propan-2-yl)-7H,8H-pyrido[2,3-d]pyrimidin-7-one] stands 45 nM; under `O=c1ccc2cnc(Nc3ccccc3)nc2n1Cc1ccccc1` [8-benzyl-2-(phenylamino)-7H,8H-pyrido[2,3-d]pyrimidin-7-one], 940 nM. Take `O=c1ccc2cnc(Nc3ccccc3)nc2n1CC1CO1` (configuration not stated) [8-Oxiranylmethyl-2-phenylamino-8H-pyrido[2,3-d]pyrimidin-7-one]: the midpoint of inhibition, the IC50, lay at 5000 nM. Take `O=c1ccc2cnc(Nc3ccccc3)nc2n1C1CCCCC1` [8-Cyclohexyl-2-phenylamino-8H-pyrido[2,3-d]pyrimidin-7-one]: the IC50 is 47 nM. In turn, `CC(C)n1c(=O)ccc2cnc(Nc3ccc(N4CCN(C)CC4)cc3)nc21` [8-Isopropyl-2-[4-(4-methylpiperazin-1-yl)phenylamino]-8H-pyrido[2,3-d]pyrimidin-7-one] came in with an IC50 of 32 nM. As to `CCCn1c(=O)ccc2cnc(Nc3ccccc3)nc21` [2-(phenylamino)-8-propyl-7H,8H-pyrido[2,3-d]pyrimidin-7-one], the half-inhibitory concentration (IC50) amounted to 553 nM.

The same experiment, now with this note: pH 7.4; 25 °C.
Consider `CCNc1ncc2ccc(=O)n(CC)c2n1` [8-ethyl-2-(ethylamino)-7H,8H-pyrido[2,3-d]pyrimidin-7-one], for which half-maximal inhibition (IC50) was put at 12000 nM.

As to `CCn1c(=O)ccc2cnc(Nc3ccc(F)cc3)nc21` [8-ethyl-2-[(4-fluorophenyl)amino]-7H,8H-pyrido[2,3-d]pyrimidin-7-one], the midpoint of inhibition, the IC50, lay at 1240 nM.

`CCN(CC)CCOc1ccc(Nc2ncc3ccc(=O)n(CC)c3n2)cc1` [2-({4-[2-(diethylamino)ethoxy]phenyl}amino)-8-ethyl-7H,8H-pyrido[2,3-d]pyrimidin-7-one]: the IC50 stood at 160 nM. Molecule `CCn1c(=O)ccc2cnc(Nc3ccc(OC)cc3)nc21` [8-ethyl-2-[(4-methoxyphenyl)amino]-7H,8H-pyrido[2,3-d]pyrimidin-7-one] yielded an IC50 of 600 nM. The same measure, in the same setting: under `CCn1c(=O)ccc2cnc(NC(C)(C)C)nc21` [2-(tert-butylamino)-8-ethyl-7H,8H-pyrido[2,3-d]pyrimidin-7-one] stands 5250 nM; under `CCn1c(=O)ccc2cnc(NC3CCCCC3)nc21` [2-Cyclohexylamino-8-ethyl-8H-pyrido[2,3-d]pyrimidin-7-one], 3300 nM; under `CCn1c(=O)ccc2cnc(Nc3ccc(N(C)C)cc3)nc21` [2-{[4-(dimethylamino)phenyl]amino}-8-ethyl-7H,8H-pyrido[2,3-d]pyrimidin-7-one], 330 nM. In turn, `CCn1c(=O)ccc2cnc(Nc3cccc(OC(F)(F)C(F)F)c3)nc21` [8-Ethyl-2-[3-(1,1,2,2-tetrafluoroethoxy)phenylamino]-8H-pyrido[2,3-d]pyrimidin-7-one] returned an IC50 of 7830 nM.

Molecule `CCn1c(=O)ccc2cnc(Nc3cccc(F)c3)nc21` [8-Ethyl-2-(3-fluorophenylamino)-8H-pyrido[2,3-d]pyrimidin-7-one] yielded an IC50 of 1400 nM.
